Experimental findings from a melting point compilation (Tetko et al.; mined from patent text by program, amines drawn as free bases though some values may be those of a salt) are described below.

As a reminder, the melting point is the temperature of the solid-liquid transition.

Residues, ends and D or L forms follow the SMILES beside them. *: point of attachment. Cbz = O=C(OCc1ccccc1)*; Boc = CC(C)(C)OC(=O)*

Turning to `COc1ccc(-c2sc3cc(O)ccc3c2Oc2ccc(OCCN3CCCCC3)cc2)cc1`, the melting point was found to be 157 °C.

`CC(=O)n1c2ccc(O)cc2c2c3c(c(-c4ccccc4Cl)cc21)C(=O)NC3=O` came in with a melting point of 258 to 261 °C.

For the compound `O=C1N(CCN2CCC(c3noc4cc(F)ccc34)CC2)CCN1c1ccccc1`, the melting point fell in the range of 158 to 160 °C.

Take `Nc1c(CC(=O)O)cccc1C(=O)c1ccc(F)cc1`: the melting point was in the range of 136 to 137 °C.

In turn, `CNC(=O)c1ccc(C(=O)O)cc1N` gave a melting point of 215 to 217 °C.

With `O=C(NCCCCOc1ccc(-n2ccnc2)cc1)c1cccc2ccccc12`, the melting point lay within 157 to 159 °C.

With `O=C(Nc1ccc(-n2nc(C(F)(F)F)cc2C2CC2)cc1)c1c(F)cccc1F`, the melting point was 188 to 191 °C.

`C=C1C2CCC(=O)C23CCC(C3)C1(C)C` (stereo not drawn) gave a melting point of 77 to 79 °C.

`N#Cc1cc(NC(=O)c2ccc3ccccc3c2)ccc1N1CCC(O)CC1`: the melting point is 183 to 185 °C.

In turn, `C[C@@H]1[C@@H](C(=O)Cc2ccccc2)C(=O)N1OCc1ccccc1` displayed a melting point of 97 to 99 °C.

Compound `O=C(CC1CCCC1)Nc1ccc2c(c1)C(=O)CCC2` gave a melting point of 117 to 118 °C.

`O=C1c2c(Cl)ccc(Cl)c2C(=O)N1CCN1CCC(c2noc3cc(F)ccc23)CC1`: the melting point was 163 to 164 °C.

`CCC(Oc1cccc(OC)c1)C(=O)NCc1ccccc1` (stereo not drawn) showed a melting point of 63 to 64 °C.

`O=C(O)CCC(=O)C(=O)N1CCCC1` had a melting point of 101 to 102 °C.

`COc1ccc(CC(=O)NCCc2cc3c(cc2C)CCC3)cc1OC` yielded a melting point of 144 to 145 °C.

In the case of `CCCCCCN1CCC(n2nc(-c3c(-c4ccccc4)nn4ccccc34)ccc2=O)CC1`, the melting point came out at 106 °C.

The compound `OC1=C(C(=S)Nc2ccccc2)c2nc3ccccc3n2CC1` showed a melting point of 224 to 227 °C.

Turning to `NS(=O)(=O)c1ccc(NC(=O)CCl)c(Br)c1`, the melting point fell in the range of 174 to 175 °C.

`O=C(NC(=S)Nc1ccc2nsnc2c1Cl)c1ccccc1` registered a melting point of 220 to 222 °C.

The compound `O=P1(c2cccc(C(F)(F)F)c2)OCc2ccccc21` (stereo not drawn) gave a melting point of 102 to 106 °C.

`COc1cc2c(cc1OCCCBr)oc1cc(-c3ccccc3Cl)c3c(c12)C(=O)N(CCCBr)C3=O` returned a melting point of 180 to 182 °C.

For `Cc1ccc(-c2ccccc2NC(=O)NN)cc1`, the melting point is 148 to 151 °C.

Consider `Cc1cc(=O)[nH]nc1-c1ccc2c(c1)CC1(CCN(C3CCC3)CC1)O2`, for which the melting point fell in the range of 243 to 245 °C.

Turning to `CN(c1cccs1)c1n[nH]c2ncnc(Nc3cccc(Cl)c3)c12`, the melting point is 228 to 229 °C.

Take `O=[N+]([O-])c1cc(Cl)c(Oc2ccccc2)cc1NCc1cccc(C(F)(F)F)c1`: the melting point fell in the range of 140 to 142 °C.

Regarding `Oc1ccc2nc(Br)sc2c1`, the melting point lay in the range of 203 to 204 °C.

`CCOC(=O)C=Cc1ccc(OC)c(OC)c1` came in with a melting point of 53 to 55 °C.

`COC(=O)C1=C(COCCn2c(C)nc(C)c2C)Nc2[nH]c(N)nc(=O)c2C1c1ccccc1Cl` (stereo not drawn): the melting point lay within 225 to 227 °C.

The compound `O=C(O)Cn1ncc(-c2ccccc2)c1-c1ccccc1` displayed a melting point of 169 to 170 °C.

Compound `O=C(NCc1ccc2c(c1)OCO2)c1ccc(C(=O)NCc2ccc3c(c2)OCO3)s1` came in with a melting point of 207 to 209 °C.

The compound `COc1nc(C)cnc1NS(=O)(=O)c1ccccc1I` gave a melting point of 136 to 138 °C.

Take `Nc1nc(Nc2ccc3c(c2)OCO3)sc1C(=O)c1ccccc1[N+](=O)[O-]`: the melting point fell in the range of 200 to 202 °C.

Regarding `COc1ccc(N2CCc3c(C)nc4ccccc4c32)c(C)c1`, the melting point lay within 115 to 117 °C.

`OC1CSC(Sc2ccc(C(F)(F)F)cc2)C(O)C1O` (stereo not drawn) registered a melting point of 128 to 130 °C.

As to `Cc1ccc(C2(Cl)c3ccccc3C(=O)c3ccccc32)cc1`, the melting point fell in the range of 136 to 140 °C.

Regarding `CS(=O)(=O)Nc1cc(C(=O)NNC(=O)c2occ(-c3ccccc3)c2-c2ccccc2)ccc1O`, the melting point lay in the range of 230 to 231 °C.

In turn, `CCCc1cc(C(=O)O)ccc1OCCCCCCc1cccc(O)c1O` returned a melting point of 123 to 124 °C.

In the case of `Cc1cc(NC(=O)OC(C)(C)C)c([N+](=O)[O-])cc1I`, the melting point lay within 99 to 100 °C.

Compound `CN(CCOc1ccc(CC(S)C(=O)O)cc1)c1nc2ccccc2o1` (stereo not drawn) came in with a melting point of 154 to 156 °C.

`Cc1cc(N)n(-c2ccc(Cl)c(Cl)c2)n1` yielded a melting point of 110 to 112 °C.

`O=C(Cc1ccccc1)CC1c2ccccc2C(=O)N1c1ccc2ccc(Cl)nc2n1` (stereo not drawn) came in with a melting point of 182 °C.

As to `OC(COc1cccc2[nH]ncc12)CN1CCC(COc2ccccc2)CC1` (stereo not drawn), the melting point lay within 141 to 142 °C.

The compound `CCCc1nc2ccccc2n1Cc1ccc(C2CCCC2C(=O)O)cc1` (stereo not drawn) had a melting point of 179 to 180 °C.

Regarding `COc1ccc(C)cc1NC(=O)Nc1ccc(N2CCN(C(=O)Nc3ccc(OCCO)cc3C)CC2)nc1`, the melting point lay in the range of 189 to 190 °C.

Take `CC(NC(=O)OCc1ccccc1)C(=O)NC(C(=O)NC(CCCCNC(=O)OC(C)(C)C)C(N)=O)C(C)C` (stereo not drawn) (Cbz-Ala-Val-Lys(Boc)-NH2; configuration not given here): the melting point fell in the range of 214 to 217 °C.

`COc1cc(OC)c2c(=O)n(CCCN3CCCC3)c(-c3cc(C)c(OCCCN4CCCC4)c(C)c3)nc2c1` yielded a melting point of 109 to 111 °C.

For the compound `CCOC(=O)c1cnn(-c2ccc(C(F)(F)F)cc2[N+](=O)[O-])c1N`, the melting point fell in the range of 118 to 121 °C.

The compound `COc1cc(OC)c2c(=O)[nH]c(-c3cc(C)c(OCCN4CCCCCC4)c(C)c3)nc2c1` displayed a melting point of 198 to 199 °C.

Regarding `c1ccc2c(c1)NCc1cccn1-2`, the melting point lay within 108 to 110 °C.

As to `CC(C)(C)COc1cccc(C[C@H](N)[C@H](O)c2cccc(Cl)c2)c1` (racemic), the melting point was 115 to 116 °C.

As for `O=C(O)CCCCCn1c2ccccc2c(=O)c2cc(Br)ccc21`, the melting point came to 213 °C.

In the case of `CN1CCN(c2cccc(-c3ccc(C#N)c(=O)[nH]3)c2)CC1`, the melting point was 264 to 267 °C.

In the case of `O=[N+]([O-])c1oc2ccc(CBr)cc2c1-c1ccccc1`, the melting point is 171 to 180 °C.

Consider `CCN(CCNS(C)(=O)=O)c1ccc(N)c(C)c1`, for which the melting point fell in the range of 128 to 130 °C.

For the compound `O=c1cc(-c2ccccc2)n(-c2ccccc2Cl)c(-c2ccccc2)c1Cl`, the melting point was 230 to 233 °C.

As for `Cc1[nH]n(C2CCCO2)c2nc(-c3ccncc3)nc(=O)c1-2` (stereo not drawn), the melting point lay in the range of 268 to 269 °C.

Compound `N#CC1=C2C(=NC1=O)c1c(Sc3ccc(Br)cc3)ccc3c(Sc4ccc(Br)cc4)ccc2c13` returned a melting point of 262 to 263 °C.

`COc1cccc(-c2cc(=O)c3cccc(C(=O)Nc4ccc(CCCCN5CCc6cc(OC)c(OC)cc6C5)cc4)c3[nH]2)c1` yielded a melting point of 116 °C.

Consider `c1ccc(CN2CCCC(c3ncc(-c4cnc(-c5ccccc5)nc4)[nH]3)C2)cc1` (stereo not drawn), for which the melting point amounted to 179 °C.

For `O=P(c1ccccc1)(c1ccccc1)c1cc(O)ccc1O`, the melting point was 216 to 218 °C.

Consider `CCCCc1nc(C)c(CC(=S)N2CCC2)c(=O)n1Cc1ccc(-c2ccccc2-c2nnn[nH]2)cc1`, for which the melting point is 92.4 to 93.8 °C.

In the case of `CCCCCCc1cc2c(s1)-n1c(C)nnc1CN=C2c1cc(OC)c(OC)c(OC)c1`, the melting point was 111 to 113 °C.

In turn, `O=C1C(=O)c2ccccc2C2=C1SCC1(CCN(CC(O)c3ccccc3)CC1)O2` (stereo not drawn) registered a melting point of 193 to 195 °C.

`CC(C)(C)c1nc(C#N)nc(C(C)(C)C)c1O` showed a melting point of 203 to 205 °C.

In the case of `Brc1ccc2c(c1)cc1n2CCC1`, the melting point was 78.7 to 79.4 °C.

`O=c1c(Br)c(N2CCOCC2)oc2ccccc12` registered a melting point of 145 to 146 °C.

For `CC(C)(C)OC(=O)N1CCc2c(n(CCO)c3c(Cl)c(Cl)ccc23)CC1`, the melting point lay in the range of 117 to 120 °C.

With `CC(C)(C)OC(=O)NCCNC(=O)c1ncsc1-c1cccc(I)c1`, the melting point was in the range of 111 to 112 °C.

Consider `COc1ccc(-c2cn(-c3cccc(OCCn4ccnc4)c3)c3ncnc(N)c23)cc1OCc1ccccc1`, for which the melting point came to 150 °C.

`Cc1ccc(NC(=O)CCCC2CCCCC2)cc1NC(=O)c1ccc(O)cc1`: the melting point lay within 159 to 160 °C.

`CC(=O)N1CCC(=O)C(C(c2ccc(F)cc2)c2ccc(F)cc2)C1` (stereo not drawn) yielded a melting point of 146 to 147 °C.

In turn, `O=C1Nc2cnc(N3CCN(c4ccccn4)CC3)nc2S/C1=C/c1ccc([N+](=O)[O-])cc1` yielded a melting point of 332 to 334 °C.

Compound `CC[C@H](C)[C@H](NS(=O)(=O)c1cccc2ccccc12)C(=O)N[C@@H](Cc1c[nH]c2ccccc12)C(=O)O` registered a melting point of 167 to 168 °C.

For `COC[C@@H](NC(C)=O)C(=O)NCc1ccc(I)cc1`, the melting point is 159 to 160 °C.

In turn, `COc1ccc2ccnc(Cl)c2c1` returned a melting point of 77 to 78 °C.

In the case of `O=c1oc2c(Cl)cccc2cc1S(=O)(=O)Nc1ccc(Br)cc1`, the melting point fell in the range of 202 to 204 °C.

Regarding `COc1cc2c(cc1C(O)COc1ccc(C(=O)O)c(O)c1)C(C)(C)CCC2(C)C` (stereo not drawn), the melting point was in the range of 178 to 179 °C.

As for `Fc1ccc(-c2cncc(CNCCOc3cccc4ccccc34)c2)cc1`, the melting point fell in the range of 92 to 94 °C.

With `CCCCCCCNC(=O)N(C)c1ccc(C)c(-c2ccc(CCC(=O)O)cc2)c1`, the melting point was found to be 104 °C.

For the compound `Cc1nc(C)c(C(=O)CBr)[nH]1`, the melting point lay within 128 to 132 °C.

`CCOc1ccc(F)cc1C(=O)c1sc2ncccc2c1N` registered a melting point of 130 °C.

Compound `O=C(O)Cc1c(-c2ccccc2)nn(C2CCCCC2)c1-c1ccccc1` yielded a melting point of 229 to 231 °C.

As for `CCCCC(CC)(C(=O)O)C(=O)O`, the melting point is 161 to 170 °C.

The compound `Cc1nc2c3c(ccc2n1C)[C@@H](OCC(F)F)[C@H](O)[C@@H](c1ccccc1)O3` gave a melting point of 249 °C.

Consider `Cc1oc2ccc(C#N)cc2c1Cl`, for which the melting point fell in the range of 132 to 134 °C.

Turning to `CCOC(=O)c1cc(CC)sc1Nc1ccc(Br)cc1[N+](=O)[O-]`, the melting point was 76 to 78 °C.

For the compound `COC(=O)NC(=O)Cc1nc(-c2cc(C(C)(C)C)c(O)c(C(C)(C)C)c2)oc1C`, the melting point was in the range of 125 to 127 °C.

Take `CCCCCCCCOc1ccc(-c2nnn[nH]2)c(O)c1`: the melting point lay within 142 to 146 °C.
